Measurements: US10428080B2, “TBK/IKK inhibitor compounds and uses thereof” (Merck Patent GmbH, priority 2015, dated 2019)
Where a name gives a salt, the structure may show the parent alone.

Legend:
[1] = target: T1, TBK1 (Homo sapiens, UniProt Q9UHD2); experiment: TBK Biochemical Assay; conditions: read-out: TBK1 IC50
T1 sequence (Q9UHD2 1-729): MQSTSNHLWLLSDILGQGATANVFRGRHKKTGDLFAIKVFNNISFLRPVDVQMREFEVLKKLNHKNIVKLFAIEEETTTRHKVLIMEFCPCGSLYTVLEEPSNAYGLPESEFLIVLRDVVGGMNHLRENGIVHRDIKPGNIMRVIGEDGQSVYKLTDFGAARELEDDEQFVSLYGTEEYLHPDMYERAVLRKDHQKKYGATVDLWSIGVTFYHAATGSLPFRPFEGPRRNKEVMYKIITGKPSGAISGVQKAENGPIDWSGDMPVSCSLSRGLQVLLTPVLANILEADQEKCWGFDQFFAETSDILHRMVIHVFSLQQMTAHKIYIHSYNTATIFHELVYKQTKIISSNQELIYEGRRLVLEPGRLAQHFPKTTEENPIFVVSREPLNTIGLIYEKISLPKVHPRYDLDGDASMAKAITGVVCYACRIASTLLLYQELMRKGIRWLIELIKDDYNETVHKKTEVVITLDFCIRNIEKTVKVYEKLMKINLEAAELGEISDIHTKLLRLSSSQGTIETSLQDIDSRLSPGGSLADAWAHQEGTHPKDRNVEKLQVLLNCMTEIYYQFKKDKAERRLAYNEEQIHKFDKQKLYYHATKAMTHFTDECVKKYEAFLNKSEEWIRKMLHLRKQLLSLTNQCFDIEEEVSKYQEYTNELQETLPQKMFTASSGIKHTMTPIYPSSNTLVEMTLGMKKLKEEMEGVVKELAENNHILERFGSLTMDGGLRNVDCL
Method in brief: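 Caliper LabChip mobility-shift readout of substrate and product after 90 min of TBK1 reaction at 25° C and stop-buffer addition. Compounds tested in 1:4 serial dilution over 10 points from 30 uM final at 1% DMSO; staurosporine 10 uM final defines full inhibition.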

[2] = target: T2, IKKε (Homo sapiens, UniProt Q14164); experiment: IKKe Biochemical Assay; conditions: read-out: IKKε IC50
T2 sequence (Q14164 1-716): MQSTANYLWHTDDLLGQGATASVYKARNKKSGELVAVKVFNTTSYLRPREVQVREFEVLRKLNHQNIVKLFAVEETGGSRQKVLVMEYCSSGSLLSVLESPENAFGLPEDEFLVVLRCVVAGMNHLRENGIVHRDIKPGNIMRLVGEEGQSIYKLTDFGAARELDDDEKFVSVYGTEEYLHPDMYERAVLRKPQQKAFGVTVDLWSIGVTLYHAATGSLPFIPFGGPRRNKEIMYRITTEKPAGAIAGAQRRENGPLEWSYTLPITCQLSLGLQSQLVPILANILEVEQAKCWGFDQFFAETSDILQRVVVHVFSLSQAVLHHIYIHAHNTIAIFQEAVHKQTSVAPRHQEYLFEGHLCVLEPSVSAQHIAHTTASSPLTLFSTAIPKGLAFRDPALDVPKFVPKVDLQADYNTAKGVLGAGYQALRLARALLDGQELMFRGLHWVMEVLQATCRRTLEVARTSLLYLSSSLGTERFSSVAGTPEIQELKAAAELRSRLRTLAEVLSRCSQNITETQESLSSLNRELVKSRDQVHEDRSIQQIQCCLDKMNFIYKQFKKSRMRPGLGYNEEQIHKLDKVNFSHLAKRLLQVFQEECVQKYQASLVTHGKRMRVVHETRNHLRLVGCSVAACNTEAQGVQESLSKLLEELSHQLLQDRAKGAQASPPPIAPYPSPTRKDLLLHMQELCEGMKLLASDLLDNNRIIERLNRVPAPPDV
Method in brief: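 Activity was measured as mobility-shift separation of phosphorylated from unphosphorylated substrate on a LabChip EZ Reader. Compound was titrated from 30 uM final in 10 points, 1:4 steps, with 1% DMSO, and enzyme plus substrate reacted 90 min at 25° C before stop buffer. Control wells held 10 uM staurosporine.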

[3] = tested on: phosphorylation of the IRF-3 protein in MDA-MB-468 cells; experiment: pIRF3 immunocytochemistry cell based assay; conditions: Homo sapiens; MDA-MB-468 cells, Poly(I:C) stimulation; read-out: pIRF3 IC50
Description: The purpose of the pIRF3 immunocytochemistry cell based assay was to identify small molecules which modulates TBK/IKKe kinase activity through on target substrate phosphorylation of the IRF-3 protein. On the first day of the experiment, MDA-MB-468 cells were plated in 384 well, black, clear-bottom, Poly D lysine coated plates at a density of 5000 cells/well in 45 ul of complete DMEM and allowed to adhere overnight. On the second day compounds were added to cells at a starting concentration of 10 uM with a serial dilution of 3-fold for a total of 10 points. The cells were incubated for 1 hr at 37° C. Cells were then stimulated with Poly(I:C) at a final concentration of 10 ug/ml, and were incubated for 2 hr at 37° C. Following the incubation, media was removed from the wells and the cells were fixed with 4% PFA for 15 min at RT. Cells were washed at least 3 times with PBS, and then permeabilized with ice-cold methanol for 10 min at RT. The washing step was repeated and the cells were then blocked using 10% goat serum/1% BSA, made up in PBS and allowed to incubate at RT for 1 hr. The cells were washed again and then treated with an anti-pIRF3 antibody at 4° C. overnight (1:250 dilution of Abcam ab76493 in PBS containing 1% BSA). On the third day the primary antibody was washed off and pIRF3 was detected by adding the secondary antibody conjugated to AlexaFluor488 (1:200 dilution of secondary antibody in PBS containing 1% BSA) for 1 hr at RT. Cells were washed and then counterstained with PI/RNase staining buffer for 15 min at RT and read on the Acumen Explorer laser scanning cytometer. The percentage of phosphorylation of the IRF-3 protein was calculated using the following algorithm, a modified version of the mean half width intensity (pIRF3 staining)/(PI staining or # of cells)×100%). IC50 curves were generated using the Genedata software.

| SMILES | IC50 [1] [nM] | IC50 [2] [nM] | IC50 [3] [nM] |
| --- | --- | --- | --- |
| COc1cc(C(=O)N(C)C)ccc1-c1cc2nccc(-c3ccc(N4CC[C@H](F)C4)c(C#N)c3)c2o1 [Compound 23, 4-{7-[3-Cyano-4-((S)-3-fluoro-pyrrolidin-1-yl)-phenyl]-furo[3,2-b]pyridin-2-yl}-3-methoxy-N,N-dimethyl-benzamide] | < 100 | < 100 | 100 to 1000 |
| COc1cc(C(=O)NC2CNCC(F)(F)C2)ccc1-c1cc2nccc(-c3ccc(OC4CCOCC4)c(C#N)c3)c2o1 (stereo not drawn) [Compound 98, 4-{7-[3-Cyano-4-(tetrahydro-pyran-4-yloxy)-phenyl]-furo[3,2-b]pyridin-2-yl}-N-(5,5-difluoro-piperidin-3-yl)-3-methoxy-benzamide hydrochloride] | < 100 | < 100 | 100 to 1000 |
| COc1cc(C(=O)N2CC3CCC(C2)O3)ccc1-c1cc2nccc(-c3ccc(OC4CCOCC4)c(C#N)c3)c2o1 [Compound 58, 5-{2-[2-Methoxy-4-(8-oxa-3-aza-bicyclo[3.2.1]octane-3-carbonyl)-phenyl]-furo[3,2-b]pyridin-7-yl}-2-(tetrahydro-pyran-4-yloxy)-benzonitrile] | < 100 | < 100 | < 100 |
| COc1cc(C(=O)NC2CN(C(C)C)C2)ccc1-c1cc2nccc(-c3ccc(OC4CCOCC4)c(C#N)c3)c2o1 [Compound 364, 4-(7-(3-cyano-4-(tetrahydro-2H-pyran-4-yloxy)phenyl)furo[3,2-b]pyridin-2-yl)-N-(1-isopropylazetidin-3-yl)-3-methoxybenzamide] | < 100 | < 100 | 100 to 1000 |
| COc1cc(C(=O)N(C)CCO)ncc1-c1cc2nccc(-c3ccc(N4CC[C@H](F)C4)c(C#N)c3)c2o1 [Compound 379, 5-{7-[3-Cyano-4-((S)-3-fluoro-pyrrolidin-1-yl)-phenyl]-furo[3,2-b]pyridin-2-yl}-4-methoxy-pyridine-2-carboxylic acid (2-hydroxy-ethyl)-methyl-amide] | < 100 | < 100 | < 100 |
| COc1cc(C(=O)N2CCN(C)CC2)ccc1-c1cc2nccc(-c3ccc(OC4CCOCC4)c(C#N)c3)c2o1 [Compound 15, 5-{2-[2-Methoxy-4-(4-methyl-piperazine-1-carbonyl)-phenyl]-furo[3,2-b]pyridin-7-yl}-2-(tetrahydro-pyran-4-yloxy)-benzonitrile] | < 100 | < 100 | < 100 |
| COc1cc(C(=O)N2CC3(CCCN3)C2)ccc1-c1cc2nccc(-c3ccc(OC4CCOCC4)c(C#N)c3)c2o1 [Compound 29, 5-{2-[4-(2,5-Diaza-spiro[3.4]octane-2-carbonyl)-2-methoxy-phenyl]-furo[3,2-b]pyridin-7-yl}-2-(tetrahydro-pyran-4-yloxy)-benzonitrile hydrochloride] | < 100 | < 100 | 100 to 1000 |
| COc1cc(C(=O)N2CC3COCC3C2)cnc1-c1cc2nccc(-c3ccc(NC4CCOCC4)c(C#N)c3)c2o1 (stereo not drawn) [Compound 420, 5-[2-[5-([hexahydro-1H-furo[3,4-c]pyrrol-5-yl]carbonyl)-3-methoxypyridin-2-yl]furo[3,2-b]pyridin-7-yl]-2-[(oxan-4-yl)amino]benzonitrile] | < 100 | < 100 | 100 to 1000 |
| COc1cc(C(=O)N2CCN(C)CC2)ccc1-c1cc2nccc(-c3ccc(N4CC[C@H](F)C4)c(C#N)c3)c2o1 [Compound 16, 2-((S)-3-Fluoro-pyrrolidin-1-yl)-5-{2-[2-methoxy-4-(4-methyl-piperazine-1-carbonyl)-phenyl]-furo[3,2-b]pyridin-7-yl}-benzonitrile] | < 100 | < 100 | 100 to 1000 |
| COc1cc(C(=O)N(C)C)ncc1-c1cc2nccc(-c3ccc(N4CCC(F)C4)c(C#N)c3)c2o1 (stereo in doubt) [Compound 390, 5-{7-[3-Cyano-4-((R)-3-fluoro-pyrrolidin-1-yl)-phenyl]-fluro[3,2-b]pyridin-2-yl}-4-methoxy-pyridine-2-carboxylic acid dimethylamide] | < 100 | < 100 | 100 to 1000 |
| COc1cc(C(=O)NC2C3COCC32)ccc1-c1cc2nccc(-c3ccc(OC4CCOCC4)c(C#N)c3)c2o1 (stereo not drawn) [Compound 65, 4-{7-[3-Cyano-4-(tetrahydro-pyran-4-yloxy)-phenyl]-furo[3,2-b]pyridin-2-yl}-3-methoxy-N-(3-oxa-bicyclo[3.1.0]hex-6-yl)-benzamide] | < 100 | < 100 | 100 to 1000 |
| N#Cc1cc(-c2ccnc3cc(-c4ccc(C(=O)N[C@@H]5CNCC[C@H]5F)cc4)oc23)ccc1OC1CCOCC1 [Compound 141, 4-{7-[3-Cyano-4-(tetrahydro-pyran-4-yloxy)-phenyl]-furo[3,2-b]pyridin-2-yl}-N-((3R,4R)-4-fluoro-piperidin-3-yl)-benzamide] | < 100 | < 100 | 100 to 1000 |
| COc1cc(C(=O)N2CCC(CO)CC2)ccc1-c1cc2nccc(-c3ccc(N4CC[C@H](F)C4)c(C#N)c3)c2o1 [Compound 70, 2-((S)-3-Fluoro-pyrrolidin-1-yl)-5-{2-[4-(4-hydroxymethyl-piperidine-1-carbonyl)-2-methoxy-phenyl]-furo[3,2-b]pyridin-7-yl}-benzonitrile] | < 100 | < 100 | 100 to 1000 |
| COc1cc(C(=O)N2CCN(C)CC2)ncc1-c1cc2nccc(-c3ccc(N4CC[C@H](F)C4)c(C#N)c3)c2o1 [Compound 463, 2-((S)-3-Fluoro-pyrrolidin-1-yl)-5-{2-[4-methoxy-6-(4-methyl-piperazine-1-carbonyl)-pyridin-3-yl]-furo[3,2-b]pyridin-7-yl}-benzonitrile] | < 100 | < 100 | < 100 |
| COc1cc(C(=O)NOC2COC2)ccc1-c1cc2nccc(-c3ccc(OC4CCOCC4)c(C#N)c3)c2o1 [Compound 80, 4-{7-[3-Cyano-4-(tetrahydro-pyran-4-yloxy)-phenyl]-furo[3,2-b]pyridin-2-yl}-3-methoxy-N-(oxetan-3-yloxy)-benzamide] | < 100 | < 100 | 100 to 1000 |
